# What was measured:
# CHO cells [1] = test: Influence of PBA on proline amide formation on an Fc-fusion protein expressed in CHO cells, quantified by peptide mapping; type: cell-based, Chinese hamster; conditions: for proline amide (% per heavy chain): without PBA >4%
# Text: (§1) For antibodies, co-elution of proline amide variants with lysine variants is avoided by removal of lysine residues using carboxypeptidase B digestion prior to chromatographic separation. Additional co-elution with other basic variants, however, can result in a quantification background of several percent (e.g. 4%). Proline amide variants plus background are termed “Pseudo 1K” for eluting at the chromatographic position of the antibody variant with one C-terminal lysine residue. “Pseudo 2K” encompasses the proline variants plus background eluting at the chromatographic position of the antibody variant with two C-terminal lysine residue. The difference to the CEX method (i.e. CEX without lysine removal by CPB digestion) is indicating the amount of antibody variants with lysine residues, termed “Real 1K” and “Real 2K”. The quantification by CEX(-CPB) returns the percentage of proline amidated antibodies relative to all antibody molecules in a solution. An analytical test method which unambiguously can identify and quantify amidated proline variants is RP-HPLC (reversed-phase high-performance-liquid-chromatography) of endopeptidase (e.g. LysC, Trypsin) digested protein, so called peptide mapping, using UV (ultraviolet) or MS (mass-spec) detection. The quantification by RP-HPLC peptide mapping returns for an antibody the percentage of proline amidated heavy chains relative to all heavy chains.
# Two recombinant proteins were used to investigate the effect of PAM inhibitors on amino acid amidation/proline amid formation, i.e., a monoclonal antibody (human-mouse-chimeric IgG), and an Fc-fusion protein. CHO cells were used as expression system.
# FIG. 2: Influence of PAM inhibitor PBA on proline amide formation on an Fc-fusion protein expressed in CHO cells, as quantified by peptide mapping. Supplementing the cultures of recombinant CHO cells with various concentrations of PBA up to 100 μM decreased the amount of proline amide (% per heavy chain) in a dose-dependent effect curve from app. 2% (no PBA) to app. 0.1% (100 μM PBA).
# FIG. 3: Influence of PAM inhibitor PBA on proline amide formation on an Fc-fusion protein expressed in CHO cells, as quantified by peptide mapping.
# CHO cells [2] = test: Influence of PAM inhibitors on proline amide formation on a monoclonal antibody (chimeric IgG) expressed in CHO cells, CEX-CPB analysis / peptide mapping; type: cell-based, Chinese hamster; conditions: FIG. 1; for amount of pseudo 1K (proline amide) in CEX-CPB: monoclonal antibody (chimeric IgG), control without inhibitor app. 10%
# Text: The amount of proline amide can be identified and quantified by various analytical methods, by distinguishing the amidated variant from the non-amidated one by physico-chemical differences such as charge, hydrophobicity or mass. The most common method is ion exchange chromatography, as the CEX-CPB method (cation exchange chromatography after digestion by carboxypeptidase B), exploiting the charge alteration due to proline amidation.
# as §1
# “Pseudo 1K” is the variant determined by CEX-CPB where one of the two heavy chains of an antibody (IgG) has a proline amide at its C-terminus. “Pseudo 2K” is the variant determined by CEX-CPB where both heavy chains of a monoclonal antibody have a proline amide at their C-termini.
# In their experiments, the inventors focused on published PAM inhibitors as potential medium components. Among the screened components are, i.e., sodium sulfite, tiopronin, captopril, EDTA, ammonium sulfite, L-histidine, D-histidine, ammonium meta thiomolybdate, L-carnosine, penicillamine, 4-phenyl-3 butenoic acid (PBA). […]
# FIG. 1: Influence of PAM inhibitors on proline amide (PA) formation, quantified as ‘pseudo 1K’ in CEX-CPB analysis, on a monoclonal antibody (chimeric IgG) expressed in CHO cells. […]
structure (smiles),measurement,setting,value
"O=C(O)CC=Cc1ccccc1 [PBA, 4-phenyl-3-butenoic acid]",amount of proline amide (% per heavy chain),"CHO cells [1]; FIG. 2, 100 μM PBA, no PBA app. 2%",~0.1%
same,effect curve of proline amide decrease,"CHO cells [1]; FIG. 2, various concentrations up to 100 μM",dose-dependent
same,proline amide (% per heavy chain),"CHO cells [1]; FIG. 3, 50 μM PBA",< 1%
same,proline amide (% per heavy chain),"CHO cells [1]; FIG. 3, 100 μM PBA",< 0.5%
same,amount of pseudo 1K (proline amide) in CEX-CPB,CHO cells [2]; 10 μM in cell culture medium,~8%
same,amount of pseudo 1K (proline amide) in CEX-CPB,CHO cells [2]; 100 μM in cell culture medium,~5%
same,"proline amide per heavy chain, peptide mapping","CHO cells [2]; corresponds to 5% pseudo 1K in CEX-CPB (100 μM), monoclonal antibody",0-2%
same,effect on proline amide formation compared with other screened PAM inhibitors,CHO cells [2]; supplemented to the cell culture,strongest effect

# Reference: patent US10106828B2, “Cell culture medium and process for protein expression, said medium and process comprising a PAM inhibitor” (SANDOZ GMBH, priority 2010, dated 2018)
